Test results from patent publication US12637477B2, “Synthesis process of amide derivatives of hydroxypenicillanic acid” (priority 2020, dated 2026).

System: CHO-S cells
Assay: Viable cell count of CHO-S cells after 24 hours incubation (anticancer activity)
Format: cell-based, hamster
Method: The two compounds, by means of a standard assay, were tested on mammalian (hamster) cancer cells to evaluate possible anticancer activity.
Compound (IIB) was used at concentrations of 25 μM and 50 μM, while Peny compound was tested at concentrations up to 400 μM.
Mammalian cancer cells were then incubated for 24 hours.
Precisely, CHO-S cells were cultured in 2 mL of DMEM (Dulbecco's Modified Eagle Medium) (10% FBS, 6% Glutamax) in a 24-well plate at a density of 200×10^3 cells/per well and subsequently incubated at 37° C. in a controlled atmosphere (5% CO2) under shaking. The following day, cells were counted by means of the Countess II instrument (Thermofisher Scientific) (an automated cell counter). They were then treated with Purymycin (positive control), Peny, (IIB) compounds, and in the absence of any product (negative control), at the concentrations shown in FIG. 37.
Cell counts were performed after 24 hours to determine the number of viable cells.

Row | Structure (SMILES) | cytotoxicity at 50 µM (50 μM, read-out: reduction of viable cells) | anticancer effect (tested at concentrations up to 400 μM)
1 | CC(=O)OC[C@H]1O[C@@H](OCc2cn(CCCNC(=O)[C@@H]3N4C(=O)N[C@H](C(=O)O)[C@H]4SC3(C)C)nn2)[C@H](OC(C)=O)[C@@H](OC(C)=O)[C@@H]1OC(C)=O [Compound (IIB), (3S, 7R, 7aR)-2,2-dimethyl-5-oxo-3-((3-(4-((((2R, 3R, 4S, 5R, 6R)-3,4,5-triacetoxy-6-(acetoxymethyl)tetrahydro-2H-pyran-2-yl)oxy)methyl)-1H-1,2,3-triazol-1-yl)propyl)carbamoyl)hexahydroimidazo[5,1-b]thiazole-7-carboxylic acid] | ~50% | 
2 | CC(=O)OC[C@@H]1OC(n2cc(COC(=O)[C@@H]3N4C(=O)[C@@H](NC(=O)OC(C)(C)C)[C@H]4SC3(C)C)nn2)[C@@H](OC(C)=O)[C@H](OC(C)=O)[C@H]1OC(C)=O (some centres unmarked) [Penγ] |  | not associated
